Reference: patent US20100152434A1, “Protein Kinase-binding Nucleosides and Associated Methods” (priority 2007, published 2010)
Read-outs that look alike come from different tables or passages of the source.

Tests used:
MDA-MB-435 = assay: cells; details: Homo sapiens, MDA-MB-435, 48 h
MDA-MB-231/ATCC [1] = test system: MDA-MB-231/ATCC
NCI-H322M = assay: cells; details: Homo sapiens, NCI-H322M, 48 h
RXF 393 = assay: cells; details: Homo sapiens, RXF 393, 48 h
SN12C = assay: cells; details: Homo sapiens, 48 h
NCI-H522 = assay: cells; details: Homo sapiens, NCI-H522, 48 h
RPMI-8226 = assay: cells; details: Homo sapiens, RPMI-8226, 48 h
IGROV1 = assay: cells; details: Homo sapiens, IGROV-1, 48 h
OVCAR-4 = assay: cells; details: Homo sapiens, OVCAR-4, 48 h
UACC-62 = assay: cells; details: Homo sapiens, UACC-62, 48 h
A498 = assay: cells; details: Homo sapiens, A498, 48 h
MDA-MB-231/ATCC [2] = assay: cells; details: Homo sapiens, MDA-MB-231, 48 h
[3] = Log10 Concentration −4.0, Molar
[4] = Log10 Concentration −5.0, Molar
[5] = Log10 Concentration −6.0, Molar
[6] = Log10 Concentration −7.0, Molar
[7] = Log10 Concentration −8.0, Molar

CCOC(=O)C[C@@H]1C(O[Si](C)(C)C(C)(C)C)[C@H](n2cnc3c(NC(=O)Nc4ccccc4)ncnc32)O[C@@H]1CNC(=O)NC (stereo partly shown) [Compound 10]
GI50 (MDA-MB-435): 6.21 µM | CC50 (MDA-MB-435; read-out: LC50): > 100 µM | TGI (MDA-MB-231/ATCC [1]; 48 h): 4.13E−5 Molar | Percent Growth (MDA-MB-231/ATCC [1]; [3]): −13% | Percent Growth (MDA-MB-231/ATCC [1]; [4]): 20% | Percent Growth (MDA-MB-231/ATCC [1]; [5]): 94% | Percent Growth (MDA-MB-231/ATCC [1]; [6]): 103% | Percent Growth (MDA-MB-231/ATCC [1]; [7]): 101% | TGI (OVCAR-8; 48 h): 7.72E−5 Molar | Percent Growth (OVCAR-8; [3]): −4% | Percent Growth (OVCAR-8; [4]): 29% | Percent Growth (OVCAR-8; [5]): 98% | Percent Growth (OVCAR-8; [6]): 100% | Percent Growth (OVCAR-8; [7]): 99% | TGI (EKVX; 48 h): >1.00E−4 Molar | Percent Growth (EKVX; [3]): 42% | Percent Growth (EKVX; [4]): 53% | Percent Growth (EKVX; [5]): 91% | Percent Growth (EKVX; [6]): 90% | Percent Growth (EKVX; [7]): 92% | TGI (SF-268; 48 h): 2.70E−5 Molar | Percent Growth (SF-268; [3]): −53% | Percent Growth (SF-268; [4]): 40% | Percent Growth (SF-268; [5]): 93% | Percent Growth (SF-268; [6]): 103% | Percent Growth (SF-268; [7]): 102% | TGI (OVCAR-3; 48 h): 1.72E−5 Molar | Percent Growth (OVCAR-3; [3]): −53% | Percent Growth (OVCAR-3; [4]): 16% | Percent Growth (OVCAR-3; [5]): 116% | Percent Growth (OVCAR-3; [6]): 115% | Percent Growth (OVCAR-3; [7]): 114% | GI50 (NCI-H322M): > 100 µM | CC50 (NCI-H322M; read-out: LC50): > 100 µM | GI50 (RXF 393): 2010 nM | CC50 (RXF 393; read-out: LC50): 19.5 µM | GI50 (SN12C): 9.1 µM | CC50 (SN12C; read-out: LC50): > 100 µM | TGI (SF-539; 48 h): >1.00E−4 Molar | Percent Growth (SF-539; [3]): 17% | Percent Growth (SF-539; [4]): 29% | Percent Growth (SF-539; [5]): 103% | Percent Growth (SF-539; [6]): 91% | Percent Growth (SF-539; [7]): 97% | GI50 (NCI-H522): 4.36 µM | CC50 (NCI-H522; read-out: LC50): > 100 µM | TGI (HCT-15; 48 h): >1.00E−4 Molar | Percent Growth (HCT-15; [3]): 43% | Percent Growth (HCT-15; [4]): 47% | Percent Growth (HCT-15; [5]): 94% | Percent Growth (HCT-15; [6]): 96% | Percent Growth (HCT-15; [7]): 99% | GI50 (RPMI-8226): 1090 nM | CC50 (RPMI-8226; read-out: LC50): 59 µM | TGI (SNB-19; 48 h): >1.00E−4 Molar | Percent Growth (SNB-19; [3]): 12% | Percent Growth (SNB-19; [4]): 82% | Percent Growth (SNB-19; [5]): 87% | Percent Growth (SNB-19; [6]): 95% | Percent Growth (SNB-19; [7]): 92% | GI50 (IGROV1): 3.85 µM | CC50 (IGROV1; read-out: LC50): 79.2 µM | TGI (MALME-3M; 48 h): >1.00E−4 Molar | Percent Growth (MALME-3M; [3]): 17% | Percent Growth (MALME-3M; [4]): 50% | Percent Growth (MALME-3M; [5]): 92% | Percent Growth (MALME-3M; [6]): 95% | Percent Growth (MALME-3M; [7]): 104% | TGI (LOX IMVI; 48 h): >1.00E−4 Molar | Percent Growth (LOX IMVI; [3]): 4% | Percent Growth (LOX IMVI; [4]): 35% | Percent Growth (LOX IMVI; [5]): 93% | Percent Growth (LOX IMVI; [6]): 97% | Percent Growth (LOX IMVI; [7]): 97% | TGI (A549/ATCC; 48 h): 1.92E−5 Molar | Percent Growth (A549/ATCC; [3]): −58% | Percent Growth (A549/ATCC; [4]): 23% | Percent Growth (A549/ATCC; [5]): 94% | Percent Growth (A549/ATCC; [6]): 103% | Percent Growth (A549/ATCC; [7]): 102% | GI50 (OVCAR-4): 12.3 µM | CC50 (OVCAR-4; read-out: LC50): > 100 µM | GI50 (UACC-62): > 100 µM | CC50 (UACC-62; read-out: LC50): > 100 µM | GI50 (A498): 3.34 µM | CC50 (A498; read-out: LC50): > 100 µM | TGI (CAKI-1; 48 h): >1.00E−4 Molar | Percent Growth (CAKI-1; [3]): 7% | Percent Growth (CAKI-1; [4]): 88% | Percent Growth (CAKI-1; [5]): 99% | Percent Growth (CAKI-1; [6]): 95% | Percent Growth (CAKI-1; [7]): 88% | TGI (SK-MEL-2; 48 h): 3.31E−5 Molar | Percent Growth (SK-MEL-2; [3]): −30% | Percent Growth (SK-MEL-2; [4]): 32% | Percent Growth (SK-MEL-2; [5]): 99% | Percent Growth (SK-MEL-2; [6]): 94% | Percent Growth (SK-MEL-2; [7]): 102% | TGI (CCRF-CEM; 48 h): 8.86E−5 Molar | Percent Growth (CCRF-CEM; [3]): −2% | Percent Growth (CCRF-CEM; [4]): 41% | Percent Growth (CCRF-CEM; [5]): 92% | Percent Growth (CCRF-CEM; [6]): 100% | Percent Growth (CCRF-CEM; [7]): 96% | GI50 (MDA-MB-231/ATCC [2]): 3.96 µM | CC50 (MDA-MB-231/ATCC [2]; read-out: LC50): > 100 µM
